Key:
[1] = system: Tyrosine-protein kinase ABL1 (Homo sapiens), P00519 [Y253F]; conditions: Compound concentration 1000.0 nM
[2] = target: Mitogen-activated protein kinase kinase kinase 6 (Homo sapiens) (UniProt O95382); conditions: Compound concentration 1000.0 nM
[3] = system: Serine/threonine-protein kinase B-raf (Homo sapiens), P15056 [V600E]; conditions: Compound concentration 1000.0 nM
[4] = target: Mitotic checkpoint serine/threonine-protein kinase BUB1 (Homo sapiens) (UniProt O43683); conditions: Compound concentration 1000.0 nM
[5] = target: Calcium/calmodulin-dependent protein kinase type 1 (Homo sapiens) (UniProt Q14012); conditions: Compound concentration 1000.0 nM
[6] = target: Calcium/calmodulin-dependent protein kinase type II subunit gamma (Homo sapiens) (UniProt Q13555); conditions: Compound concentration 1000.0 nM
[7] = target: Cyclin-dependent kinase 8 (Homo sapiens) (UniProt P49336); conditions: Compound concentration 1000.0 nM
[8] = target: Citron Rho-interacting kinase (Homo sapiens) (UniProt O14578); conditions: Compound concentration 1000.0 nM
[9] = target: Dual specificity protein kinase CLK1 (Homo sapiens) (UniProt P49759); conditions: Compound concentration 1000.0 nM
[10] = target: Casein kinase II subunit alpha' (Homo sapiens) (UniProt P19784); conditions: Compound concentration 1000.0 nM
[11] = target: Megakaryocyte-associated tyrosine-protein kinase (Homo sapiens) (UniProt P42679); conditions: Compound concentration 1000.0 nM
[12] = target: Serine/threonine-protein kinase DCLK2 (Homo sapiens) (UniProt Q8N568); conditions: Compound concentration 1000.0 nM
[13] = target: Epithelial discoidin domain-containing receptor 1 (Homo sapiens) (UniProt Q08345); conditions: Compound concentration 1000.0 nM
[14] = system: Epidermal growth factor receptor (Homo sapiens), P00533 [L861Q]; conditions: Compound concentration 1000.0 nM
[15] = target: Ephrin type-A receptor 5 (Homo sapiens) (UniProt P54756); conditions: Compound concentration 1000.0 nM
[16] = target: Vascular endothelial growth factor receptor 1 (Homo sapiens) (UniProt P17948); conditions: Compound concentration 1000.0 nM
[17] = system: Receptor-type tyrosine-protein kinase FLT3 (Homo sapiens), P36888 [D835H]; conditions: Compound concentration 1000.0 nM
[18] = target: Vascular endothelial growth factor receptor 3 (Homo sapiens) (UniProt P35916); conditions: Compound concentration 1000.0 nM
[19] = target: Beta-adrenergic receptor kinase 1 (Homo sapiens) (UniProt P25098); conditions: Compound concentration 1000.0 nM
[20] = target: Tyrosine-protein kinase JAK1 (Homo sapiens) (UniProt P23458); conditions: Compound concentration 1000.0 nM
[21] = target: Tyrosine-protein kinase JAK1 (Homo sapiens) (UniProt P23458); conditions: Compound concentration 1000.0 nM; remark: listed apart in the source
[22] = system: Mast/stem cell growth factor receptor Kit (Homo sapiens), P10721 [L576P]; conditions: Compound concentration 1000.0 nM
[23] = target: LIM domain kinase 1 (Homo sapiens) (UniProt P53667); conditions: Compound concentration 1000.0 nM
[24] = target: Mitogen-activated protein kinase kinase kinase 3 (Homo sapiens) (UniProt Q99759); conditions: Compound concentration 1000.0 nM
[25] = target: Dual specificity mitogen-activated protein kinase kinase 5 (Homo sapiens) (UniProt Q13163); conditions: Compound concentration 1000.0 nM
[26] = target: Hepatocyte growth factor receptor (Homo sapiens) (UniProt P08581); conditions: Compound concentration 1000.0 nM
[27] = target: Serine/threonine-protein kinase Nek4 (Homo sapiens) (UniProt P51957); conditions: Compound concentration 1000.0 nM
[28] = target: Phosphorylase b kinase gamma catalytic chain, skeletal muscle/heart isoform (Homo sapiens) (UniProt Q16816); conditions: Compound concentration 1000.0 nM
[29] = system: Phosphatidylinositol 4,5-bisphosphate 3-kinase catalytic subunit alpha isoform (Homo sapiens), P42336 [I800L]; conditions: Compound concentration 1000.0 nM
[30] = target: Phosphatidylinositol 5-phosphate 4-kinase type-2 beta (Homo sapiens) (UniProt P78356); conditions: Compound concentration 1000.0 nM
[31] = target: Serine/threonine-protein kinase PLK2 (Homo sapiens) (UniProt Q9NYY3); conditions: Compound concentration 1000.0 nM
[32] = target: Protein kinase C eta type (Homo sapiens) (UniProt P24723); conditions: Compound concentration 1000.0 nM
[33] = target: Serine/threonine-protein kinase D3 (Homo sapiens) (UniProt O94806); conditions: Compound concentration 1000.0 nM
[34] = target: cGMP-dependent protein kinase 1 (Homo sapiens) (UniProt Q13976); conditions: Compound concentration 1000.0 nM
[35] = target: Rho-associated protein kinase 1 (Homo sapiens) (UniProt Q13464); conditions: Compound concentration 1000.0 nM
[36] = target: Ribosomal protein S6 kinase alpha-6 (Homo sapiens) (UniProt Q9UK32); conditions: Compound concentration 1000.0 nM
[37] = target: Serine/threonine-protein kinase SBK1 (Homo sapiens) (UniProt Q52WX2); conditions: Compound concentration 1000.0 nM
[38] = target: Serine/threonine-protein kinase Sgk2 (Homo sapiens) (UniProt Q9HBY8); conditions: Compound concentration 1000.0 nM
[39] = target: SRSF protein kinase 3 (Homo sapiens) (UniProt Q9UPE1); conditions: Compound concentration 1000.0 nM
[40] = target: Serine/threonine-protein kinase 35 (Homo sapiens) (UniProt Q8TDR2); conditions: Compound concentration 1000.0 nM
[41] = target: Testis-specific serine/threonine-protein kinase 3 (Homo sapiens) (UniProt Q96PN8); conditions: Compound concentration 1000.0 nM
[42] = target: Non-receptor tyrosine-protein kinase TYK2 (Homo sapiens) (UniProt P29597); conditions: Compound concentration 1000.0 nM
[43] = target: Serine/threonine-protein kinase ULK2 (Homo sapiens) (UniProt Q8IYT8); conditions: Compound concentration 1000.0 nM
[44] = target: Serine/threonine-protein kinase WNK2 (Homo sapiens) (UniProt Q9Y3S1); conditions: Compound concentration 1000.0 nM
[45] = target: Beta-1 adrenergic receptor (Homo sapiens) (UniProt P08588); conditions: Compound concentration 10.0 uM

Chain of Tyrosine-protein kinase JAK1 (Homo sapiens) (P23458 whole entry): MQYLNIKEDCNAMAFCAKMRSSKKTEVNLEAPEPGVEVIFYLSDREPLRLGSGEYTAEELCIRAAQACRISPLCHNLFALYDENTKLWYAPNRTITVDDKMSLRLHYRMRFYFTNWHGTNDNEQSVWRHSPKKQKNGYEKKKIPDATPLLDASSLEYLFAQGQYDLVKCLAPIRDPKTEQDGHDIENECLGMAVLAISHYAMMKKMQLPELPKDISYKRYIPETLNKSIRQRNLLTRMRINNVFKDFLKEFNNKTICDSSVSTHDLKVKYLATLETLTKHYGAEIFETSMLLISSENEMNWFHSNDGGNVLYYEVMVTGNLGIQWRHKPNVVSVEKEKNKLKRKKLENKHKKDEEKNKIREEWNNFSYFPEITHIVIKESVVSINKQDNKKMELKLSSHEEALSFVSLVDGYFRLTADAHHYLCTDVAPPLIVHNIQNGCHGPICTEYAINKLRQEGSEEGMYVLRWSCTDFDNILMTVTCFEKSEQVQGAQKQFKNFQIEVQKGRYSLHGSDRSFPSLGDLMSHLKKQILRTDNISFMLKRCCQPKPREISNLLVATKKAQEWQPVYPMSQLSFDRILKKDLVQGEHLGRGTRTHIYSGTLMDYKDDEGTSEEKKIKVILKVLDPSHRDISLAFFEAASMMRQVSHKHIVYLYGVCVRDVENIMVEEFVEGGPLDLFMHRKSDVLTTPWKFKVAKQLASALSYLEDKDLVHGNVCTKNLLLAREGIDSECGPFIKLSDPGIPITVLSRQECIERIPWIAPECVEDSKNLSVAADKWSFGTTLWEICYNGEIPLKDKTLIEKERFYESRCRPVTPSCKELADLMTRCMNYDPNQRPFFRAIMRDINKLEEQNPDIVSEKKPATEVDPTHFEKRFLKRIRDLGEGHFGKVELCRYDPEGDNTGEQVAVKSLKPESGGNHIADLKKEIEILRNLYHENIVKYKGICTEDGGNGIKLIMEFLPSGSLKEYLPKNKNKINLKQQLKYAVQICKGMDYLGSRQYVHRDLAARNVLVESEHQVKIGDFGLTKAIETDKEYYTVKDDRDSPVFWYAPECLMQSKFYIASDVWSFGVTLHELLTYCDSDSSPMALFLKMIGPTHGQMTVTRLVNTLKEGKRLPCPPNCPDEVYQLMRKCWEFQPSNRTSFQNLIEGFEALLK
Chain of Dual specificity mitogen-activated protein kinase kinase 5 (Homo sapiens) (Q13163 whole entry): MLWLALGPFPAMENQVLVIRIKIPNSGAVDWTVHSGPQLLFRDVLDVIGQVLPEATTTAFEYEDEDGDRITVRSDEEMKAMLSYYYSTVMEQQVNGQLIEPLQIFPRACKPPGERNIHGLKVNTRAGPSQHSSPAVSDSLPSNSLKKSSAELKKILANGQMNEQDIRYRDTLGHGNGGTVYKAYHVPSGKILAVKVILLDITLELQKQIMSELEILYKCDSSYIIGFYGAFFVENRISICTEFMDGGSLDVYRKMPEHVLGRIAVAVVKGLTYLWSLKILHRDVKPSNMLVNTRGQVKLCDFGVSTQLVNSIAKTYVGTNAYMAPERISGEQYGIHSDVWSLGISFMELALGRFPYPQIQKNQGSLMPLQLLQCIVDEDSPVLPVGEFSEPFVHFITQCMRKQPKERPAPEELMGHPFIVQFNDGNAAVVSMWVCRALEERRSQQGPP
Chain of Rho-associated protein kinase 1 (Homo sapiens) (Q13464 2-1354 limits assumed): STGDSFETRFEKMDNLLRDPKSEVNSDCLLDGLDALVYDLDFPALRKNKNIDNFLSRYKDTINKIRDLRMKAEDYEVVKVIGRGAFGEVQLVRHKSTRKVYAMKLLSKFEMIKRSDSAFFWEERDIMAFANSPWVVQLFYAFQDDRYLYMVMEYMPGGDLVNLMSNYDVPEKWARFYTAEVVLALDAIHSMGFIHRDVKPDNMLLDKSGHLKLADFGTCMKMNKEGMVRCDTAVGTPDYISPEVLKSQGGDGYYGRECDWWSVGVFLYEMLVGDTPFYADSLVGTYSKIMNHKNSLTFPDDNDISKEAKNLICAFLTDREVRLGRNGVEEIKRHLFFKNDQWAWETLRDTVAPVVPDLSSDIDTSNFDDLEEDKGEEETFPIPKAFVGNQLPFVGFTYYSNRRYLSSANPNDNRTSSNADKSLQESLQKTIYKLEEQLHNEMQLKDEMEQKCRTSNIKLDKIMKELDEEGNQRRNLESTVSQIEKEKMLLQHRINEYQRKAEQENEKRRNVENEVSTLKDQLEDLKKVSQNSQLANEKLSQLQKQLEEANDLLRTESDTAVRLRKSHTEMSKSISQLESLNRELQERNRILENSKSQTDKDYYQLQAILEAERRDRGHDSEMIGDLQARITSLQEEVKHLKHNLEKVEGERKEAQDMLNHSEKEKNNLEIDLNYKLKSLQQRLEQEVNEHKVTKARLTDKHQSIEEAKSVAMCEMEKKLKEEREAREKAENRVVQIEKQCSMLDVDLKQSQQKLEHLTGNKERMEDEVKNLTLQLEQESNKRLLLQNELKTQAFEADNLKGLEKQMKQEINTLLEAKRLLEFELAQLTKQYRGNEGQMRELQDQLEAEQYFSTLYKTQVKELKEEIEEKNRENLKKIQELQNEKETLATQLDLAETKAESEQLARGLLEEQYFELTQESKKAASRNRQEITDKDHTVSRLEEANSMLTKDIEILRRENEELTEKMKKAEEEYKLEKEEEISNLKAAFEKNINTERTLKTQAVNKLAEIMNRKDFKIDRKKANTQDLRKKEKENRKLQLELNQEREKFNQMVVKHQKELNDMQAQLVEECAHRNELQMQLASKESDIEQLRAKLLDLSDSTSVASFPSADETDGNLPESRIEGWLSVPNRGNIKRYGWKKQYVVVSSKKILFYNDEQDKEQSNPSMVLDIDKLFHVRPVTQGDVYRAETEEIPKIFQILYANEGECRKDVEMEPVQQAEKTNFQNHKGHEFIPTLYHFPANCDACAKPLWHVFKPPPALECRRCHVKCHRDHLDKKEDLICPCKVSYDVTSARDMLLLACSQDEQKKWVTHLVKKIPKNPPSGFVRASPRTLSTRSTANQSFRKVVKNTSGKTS
Chain of Cyclin-dependent kinase 8 (Homo sapiens) (P49336 whole entry): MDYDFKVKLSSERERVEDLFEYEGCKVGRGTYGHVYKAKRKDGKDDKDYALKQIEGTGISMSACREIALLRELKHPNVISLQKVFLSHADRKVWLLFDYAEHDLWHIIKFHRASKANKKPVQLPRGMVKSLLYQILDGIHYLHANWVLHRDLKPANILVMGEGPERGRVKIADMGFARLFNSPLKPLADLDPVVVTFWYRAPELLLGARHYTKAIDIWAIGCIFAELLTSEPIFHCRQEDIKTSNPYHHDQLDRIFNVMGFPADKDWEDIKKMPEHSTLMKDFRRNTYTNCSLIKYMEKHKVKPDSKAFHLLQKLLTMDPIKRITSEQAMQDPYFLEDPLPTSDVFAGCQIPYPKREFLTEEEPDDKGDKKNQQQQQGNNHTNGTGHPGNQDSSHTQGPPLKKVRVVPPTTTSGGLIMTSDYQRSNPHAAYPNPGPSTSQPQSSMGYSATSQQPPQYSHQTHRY
Chain of Serine/threonine-protein kinase ULK2 (Homo sapiens) (Q8IYT8 whole entry): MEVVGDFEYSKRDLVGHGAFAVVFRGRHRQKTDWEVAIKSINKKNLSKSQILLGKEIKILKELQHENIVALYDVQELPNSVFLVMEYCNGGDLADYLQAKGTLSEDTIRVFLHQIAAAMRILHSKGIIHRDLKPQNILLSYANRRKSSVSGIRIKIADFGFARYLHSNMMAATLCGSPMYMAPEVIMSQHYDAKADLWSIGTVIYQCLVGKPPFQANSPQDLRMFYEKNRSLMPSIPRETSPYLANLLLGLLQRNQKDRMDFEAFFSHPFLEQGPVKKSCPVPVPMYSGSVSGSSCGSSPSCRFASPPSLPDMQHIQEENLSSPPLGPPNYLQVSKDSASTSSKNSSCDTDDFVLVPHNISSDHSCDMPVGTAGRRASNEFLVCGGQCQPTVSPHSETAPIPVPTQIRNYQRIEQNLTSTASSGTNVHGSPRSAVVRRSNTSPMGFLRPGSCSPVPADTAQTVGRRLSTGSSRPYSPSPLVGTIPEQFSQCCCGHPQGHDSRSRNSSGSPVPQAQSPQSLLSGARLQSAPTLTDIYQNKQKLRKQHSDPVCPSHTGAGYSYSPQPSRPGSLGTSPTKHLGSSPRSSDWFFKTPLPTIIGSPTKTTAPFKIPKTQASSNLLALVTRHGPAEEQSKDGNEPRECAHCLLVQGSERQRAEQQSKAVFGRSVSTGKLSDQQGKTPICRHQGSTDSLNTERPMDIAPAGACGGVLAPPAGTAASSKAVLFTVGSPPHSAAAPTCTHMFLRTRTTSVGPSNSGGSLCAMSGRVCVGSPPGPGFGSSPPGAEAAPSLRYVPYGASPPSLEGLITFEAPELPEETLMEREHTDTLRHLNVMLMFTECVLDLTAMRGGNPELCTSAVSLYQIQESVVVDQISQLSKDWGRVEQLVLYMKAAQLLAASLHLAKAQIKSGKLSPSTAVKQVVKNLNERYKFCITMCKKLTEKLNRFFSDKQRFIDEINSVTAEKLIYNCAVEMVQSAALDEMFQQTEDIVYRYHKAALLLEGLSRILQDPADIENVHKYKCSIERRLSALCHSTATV
Chain of Calcium/calmodulin-dependent protein kinase type 1 (Homo sapiens) (Q14012 whole entry, looked up): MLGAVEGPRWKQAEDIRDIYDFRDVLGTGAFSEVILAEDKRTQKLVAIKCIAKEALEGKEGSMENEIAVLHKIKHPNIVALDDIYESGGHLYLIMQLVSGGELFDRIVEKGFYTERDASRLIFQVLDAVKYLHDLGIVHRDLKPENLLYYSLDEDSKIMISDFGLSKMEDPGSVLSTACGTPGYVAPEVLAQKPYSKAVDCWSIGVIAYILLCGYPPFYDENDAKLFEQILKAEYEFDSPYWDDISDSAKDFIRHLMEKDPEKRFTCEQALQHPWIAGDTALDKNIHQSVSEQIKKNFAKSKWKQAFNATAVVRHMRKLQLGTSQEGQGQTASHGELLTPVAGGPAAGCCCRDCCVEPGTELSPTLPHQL

Cc1c(C(=O)O)cc(-c2ccc(C3CCNCC3)cc2)c2ccc(-c3ccc(C(F)(F)F)cc3)cc12 [PPTN-NC]
inactive: residual activity [1] 87% | residual activity [2] 100% | residual activity [3] 100% | residual activity [4] 100% | residual activity [5] 100% | residual activity [6] 100% | residual activity [7] 100% | residual activity [8] 100% | residual activity [9] 100% | residual activity [10] 100% | residual activity [11] 100% | residual activity [12] 100% | residual activity [13] 100% | residual activity [14] 100% | residual activity [15] 100% | residual activity [16] 80% | residual activity [17] 90% | residual activity [18] 100% | residual activity [19] 100% | residual activity [20] 100% | residual activity [21] 79% | residual activity [22] 100% | residual activity [23] 100% | residual activity [24] 98% | residual activity [25] 100% | residual activity [26] 100% | residual activity [27] 100% | residual activity [28] 100% | residual activity [29] 100% | residual activity [30] 86% | residual activity [31] 100% | residual activity [32] 100% | residual activity [33] 100% | residual activity [34] 97% | residual activity [35] 100% | residual activity [36] 100% | residual activity [37] 100% | residual activity [38] 100% | residual activity [39] 100% | residual activity [40] 100% | residual activity [41] 93% | residual activity [42] 100% | residual activity [43] 100% | residual activity [44] 100% | inhibition [45] 29.2%

O=C(O)c1cc(-c2ccc(C3CCNCC3)cc2)c2ccc(-c3ccc(C(F)(F)F)cc3)cc2c1 [PPTN]
inactive: residual activity [1] 73% | residual activity [2] 100% | residual activity [3] 100% | residual activity [4] 100% | residual activity [5] 100% | residual activity [6] 100% | residual activity [7] 100% | residual activity [8] 100% | residual activity [9] 100% | residual activity [10] 100% | residual activity [11] 100% | residual activity [12] 100% | residual activity [13] 100% | residual activity [14] 100% | residual activity [15] 97% | residual activity [16] 86% | residual activity [17] 81% | residual activity [18] 100% | residual activity [19] 100% | residual activity [20] 100% | residual activity [21] 87% | residual activity [22] 100% | residual activity [23] 100% | residual activity [24] 83% | residual activity [25] 96% | residual activity [26] 100% | residual activity [27] 100% | residual activity [28] 100% | residual activity [29] 93% | residual activity [30] 91% | residual activity [31] 100% | residual activity [32] 100% | residual activity [33] 100% | residual activity [34] 100% | residual activity [35] 100% | residual activity [36] 100% | residual activity [37] 100% | residual activity [38] 100% | residual activity [39] 82% | residual activity [40] 100% | residual activity [41] 100% | residual activity [42] 100% | residual activity [43] 100% | residual activity [44] 100% | inhibition [45] 24.7%

Reference: ChEMBL document CHEMBL4507292 (2021)
